Patent US8183239B2, “Substituted piperazines and piperidines as modulators of the neuropeptide Y2 receptor” (Janssen Pharmaceutica NV, priority 2005, dated 2012)
pIC50: −log10 of the molar value.

Target: T1, Y2 receptors (Homo sapiens, UniProt P49146)
T1 construct: endogenous in cells; host or cells: KAN-Ts cells (membranes)
T1 sequence (P49146 1-381): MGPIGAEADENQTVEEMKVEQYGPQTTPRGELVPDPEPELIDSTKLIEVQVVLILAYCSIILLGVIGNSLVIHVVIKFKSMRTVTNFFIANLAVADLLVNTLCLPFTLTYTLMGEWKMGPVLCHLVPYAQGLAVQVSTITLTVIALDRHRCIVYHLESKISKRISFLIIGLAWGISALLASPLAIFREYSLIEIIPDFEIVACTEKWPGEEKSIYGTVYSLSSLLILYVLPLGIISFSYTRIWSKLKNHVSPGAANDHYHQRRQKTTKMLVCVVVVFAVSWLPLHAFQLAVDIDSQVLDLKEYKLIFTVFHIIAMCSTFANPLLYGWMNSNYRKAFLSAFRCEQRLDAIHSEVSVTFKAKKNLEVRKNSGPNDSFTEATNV
Experiment: Radioligand binding assay ([125I]PYY, KAN-Ts cell membranes)
Settings: IC50 (nM), Table 1, [125I]PYY 80 pM, average of results
Method: Radioligand Binding Assay
KAN-Ts endogenously expressing Y2 receptors were used for the radioligand binding assay. Cells were grown to confluence on 150 cm^2 tissue culture plates, washed with phosphate-buffered saline (PBS), and scraped into 50 mL tubes. After centrifugation, the supernatant was aspirated, and the pellets frozen and stored at −80° C. Thawed pellets were homogenized with a polytron tissue grinder for 15 sec in 20 mM Tris-HCl, 5 mM EDTA. The homogenate was centrifuged at 800×g for 5 min and the collected supernatant was recentrifuged at 25000×g for 25 min. The resulting pellet was resuspended in binding buffer (20 mM HEPES, 120 mM NaCl, 0.22 mM KH2PO4, 1.3 mM CaCl2, 0.8 mM MgSO4). Membranes were incubated with [^125I]PYY (80 pM) in the presence or absence of test compound for 1 h at rt. The reaction was stopped by filtration through GF/C filter plates pre-soaked in 0.3% polyethylenimine and subsequently washed with Tris 50 mM, 5 mM EDTA buffer. Plates were dried for 1 h in a 55° C. oven, scintillation fluid was added and the radioactivity was counted in a Packard TopCount. Specific binding to the NPY receptor subtypes was determined by radioactivity that was bound in the presence of […]. Each binding experiment was repeated three to eight times, each in duplicate. IC50 values (i.e. concentration of unlabelled peptide or antagonist required to compete for 50% of specific binding to the radioligand) were calculated using the GraphPad Prism software (GraphPad Software Inc., San Diego Calif.) with a fit to a sigmoidal dose response curve. Data for compounds tested are presented in Tables 1 and 2 as an average of results obtained.

| SMILES | IC50 [nM] |
| --- | --- |
| CCC(CC)C(=O)N(c1ccccc1)C1CCN(c2ccc(NC(=O)Nc3c(C)noc3C)cc2F)CC1 [Example 32, N-(1-{4-[3-(3,5-Dimethyl-isoxazol-4-yl)-ureido]-2-fluoro-phenyl}-piperidin-4-yl)-2-ethyl-N-phenyl-butyramide] | 180 |
| CCC(CC)C(=O)Nc1ccc(N2CCC(N(C(=O)C(CC)CC)c3ccccc3)CC2)c(F)c1 [Example 33, 2-Ethyl-N-{1-[4-(2-ethyl-butyrylamino)-2-fluoro-phenyl]-piperidin-4-yl}-N-phenyl-butyramide] | 180 |
| CCC(CC)C(=O)Nc1ccc(N2CCN(C(C(=O)OC)c3cccc(F)c3)CC2)c(F)c1 (centres unmarked) [Example 34, {4-[4-(2-Ethyl-butyrylamino)-2-fluoro-phenyl]-piperazin-1-yl}-(3-fluoro-phenyl)-acetic acid methyl ester] | 40 |

Same assay, conditions: Table 1, [125I]PYY 80 pM, average of results, read-out: IC50

| SMILES | pIC50 |
| --- | --- |
| CCNC(=O)C(c1ccccc1)N1CCN(c2ccc(NC(=O)N[C@@H](C)c3ccc(F)cc3)cc2F)CC1 (stereo partly drawn) [Example 28, N-Ethyl-2-[4-(2-fluoro-4-{3-[(S)-1-(4-fluoro-phenyl)-ethyl]-ureido}-phenyl)-piperazin-1-yl]-2-phenyl-acetamide] | 5.54 |
| CCN(CC)C(=O)C(c1ccccc1)N1CCN(c2ccc(NC(=O)[C@H]3CCOC3)cc2F)CC1 (stereo partly drawn) [Example 29, (S)-Tetrahydro-furan-3-carboxylic acid {4-[4-(diethylcarbamoyl-phenyl-methyl)-piperazin-1-yl]-3-fluoro-phenyl}-amide] | 7.19 |
| CCN(CC)C(=O)C(c1ccccc1)N1CCN(c2ccc(N(CC)C(=O)N(CC)c3c(C)noc3C)cc2F)CC1 (centres unmarked) [Example 30, 2-(4-{4-[3-(3,5-Dimethyl-isoxazol-4-yl)-1,3-diethyl-ureido]-2-fluoro-phenyl}-piperazin-1-yl)-N,N-diethyl-2-phenyl-acetamide] | 6.24 |
| CCN(CC)C(=O)C(c1ccccc1)N1CCN(c2ccc(C(=O)NCc3c(C)noc3C)cc2F)CC1 (centres unmarked) [Example 31, 4-[4-(Diethylcarbamoyl-phenyl-methyl)-piperazin-1-yl]-N-(3,5-dimethyl-isoxazol-4-ylmethyl)-3-fluoro-benzamide] | 7.62 |
| CCC(CC)C(=O)Nc1ccc(N2CCN(C(C(=O)N(CC)CC)c3cccc(F)c3)CC2)c(F)c1 (centres unmarked) [Example 35, N-(4-{4-[Diethylcarbamoyl-(3-fluoro-phenyl)-methyl]-piperazin-1-yl}-3-fluoro-phenyl)-2-ethyl-butyramide] | 7.48 |
| CCC(CC)C(=O)Nc1ccc(N2CCN(C(C(=O)OC)c3ccc(C#N)cc3)CC2)c(F)c1 (centres unmarked) [Example 36, (4-Cyano-phenyl)-{4-[4-(2-ethyl-butyrylamino)-2-fluoro-phenyl]-piperazin-1-yl}-acetic acid methyl ester] | 6.68 |
| CCC(CC)C(=O)Nc1ccc(N2CCN(C(C(=O)OC)c3cccc(Cl)c3)CC2)c(F)c1 (centres unmarked) [Example 37, (3-Chloro-phenyl)-{4-[4-(2-ethyl-butyrylamino)-2-fluoro-phenyl]-piperazin-1-yl}-acetic acid methyl ester] | 7.25 |
| CCC(CC)C(=O)Nc1ccc(N2CCN(C(C(=O)OC)c3cccc(F)c3F)CC2)c(F)c1 (centres unmarked) [Example 38, (2,3-Difluoro-phenyl)-{4-[4-(2-ethyl-butyrylamino)-2-fluoro-phenyl]-piperazin-1-yl}-acetic acid methyl ester] | 6.36 |
| COC(=O)C(c1ccccc1)N1CCN(c2ccc(NC(=O)c3ccccc3C)cc2Cl)CC1 (centres unmarked) [Example 39, {4-[2-Chloro-4-(2-methyl-benzoylamino)-phenyl]-piperazin-1-yl}-phenyl-acetic acid methyl ester] | 6.10 |
| CCC(CC)C(=O)Nc1cc(F)c(N2CCN(C(C(=O)OC)c3ccccc3)CC2)c(F)c1 (centres unmarked) [Example 40, {4-[4-(2-Ethyl-butyrylamino)-2,6-difluoro-phenyl]-piperazin-1-yl}-phenyl-acetic acid methyl ester] | 6.96 |
| CCC(CC)C(=O)Nc1cc(Cl)c(N2CCN(C(C(=O)OC)c3ccccc3)CC2)c(Cl)c1 (centres unmarked) [Example 41, {4-[2,6-Dichloro-4-(2-ethyl-butyrylamino)-phenyl]-piperazin-1-yl}-phenyl-acetic acid methyl ester] | 7.11 |
| CCNC(=O)C(c1ccccc1)N1CCN(c2ccc(NC(=O)C(CC)CC)c(F)c2)CC1 (centres unmarked) [Example 42, 2-Ethyl-N-{4-[4-(ethylcarbamoyl-phenyl-methyl)-piperazin-1-yl]-2-fluoro-phenyl}-butyramide] | 5.32 |
| CCNC(=O)C(c1ccccc1)C1CCN(c2ccc(NC(=O)C(CC)CC)cc2C#N)CC1 (centres unmarked) [Example 43, N-{3-Cyano-4-[4-(ethylcarbamoyl-phenyl-methyl)-piperidin-1-yl]-phenyl}-2-ethyl-butyramide] | 7.85 |
| CCC(CC)C(=O)Nc1ccc(N2CCN(C(C(=O)OC)c3ccccc3)CC2)c(F)c1 (centres unmarked) [Example 44, {4-[4-(2-Ethyl-butyrylamino)-2-fluoro-phenyl]-piperazin-1-yl}-phenyl-acetic acid methyl ester] | 6.88 |
| COC(=O)C(c1ccccc1)N1CCN(c2ccc(NC(=O)C3Cc4ccccc43)cc2)CC1 (centres unmarked) [Example 45, (4-{4-[(Bicyclo[4.2.0]octa-1 (6),2,4-triene-7-carbonyl)-amino]-phenyl}-piperazin-1-yl)-phenyl-acetic acid methyl ester] | 5.40 |
| COC(=O)C(c1ccccc1)N1CCN(c2ccc(NC(=O)c3ccccc3I)cc2)CC1 (centres unmarked) [Example 46, {4-[4-(2-Iodo-benzoylamino)-phenyl]-piperazin-1-yl}-phenyl-acetic acid methyl ester] | 5.22 |
| COC(=O)C(c1ccccc1)N1CCN(c2ccc(NC(=O)c3ccccc3)cc2)CC1 (centres unmarked) [Example 47, [4-(4-Benzoylamino-phenyl)-piperazin-1-yl]-phenyl-acetic acid methyl ester] | 5.00 |
| COC(=O)C(c1ccccc1)N1CCN(c2ccc(NC(=O)c3ccccc3C3CCCCC3)cc2)CC1 (centres unmarked) [Example 49, {4-[4-(2-Cyclohexyl-benzoylamino)-phenyl]-piperazin-1-yl}-phenyl-acetic acid methyl ester] | 5.89 |
| COC(=O)C(c1ccccc1)N1CCN(c2ccc(NC(=O)c3ccccc3C)cc2)CC1 (centres unmarked) [Example 50, {4-[4-(2-Methyl-benzoylamino)-phenyl]-piperazin-1-yl}-phenyl-acetic acid methyl ester] | 5.74 |
| CCc1ccccc1C(=O)Nc1ccc(N2CCN(C(C(=O)OC)c3ccccc3)CC2)cc1 (centres unmarked) [Example 51, {4-[4-(2-Ethyl-benzoylamino)-phenyl]-piperazin-1-yl}-phenyl-acetic acid methyl ester] | 5.73 |
| COC(=O)C(c1ccccc1)N1CCN(c2ccc(NC(=O)c3ccccc3C(C)C)cc2)CC1 (centres unmarked) [Example 52, {4-[4-(2-Isopropyl-benzoylamino)-phenyl]-piperazin-1-yl}-phenyl-acetic acid methyl ester] | 5.85 |
| COC(=O)C(c1ccccc1)N1CCN(c2ccc(NC(=O)c3ccccc3Cl)cc2)CC1 (centres unmarked) [Example 53, {4-[4-(2-Chloro-benzoylamino)-phenyl]-piperazin-1-yl}-phenyl-acetic acid methyl ester] | 4.90 |
| COC(=O)C(c1ccccc1)N1CCN(c2ccc(NC(=O)c3ccccc3OC)cc2)CC1 (centres unmarked) [Example 56, {4-[4-(2-Methoxy-benzoylamino)-phenyl]-piperazin-1-yl}-phenyl-acetic acid methyl ester] | 5.40 |
